Assay results taken from the supplement of paper PMC10307832.

Experiments:
Experiment in all cases: relative viability (nuclei count vs DMSO), 5 days (fraction); higher = more cells survive
AZD8055 + Trametinib = compound: COc1ccc(-c2ccc3c(N4CCOC[C@@H]4C)nc(N4CCOC[C@@H]4C)nc3n2)cc1CO [AZD8055] + CC(=O)Nc1cccc(-n2c(=O)n(C3CC3)c(=O)c3c(Nc4ccc(I)cc4F)n(C)c(=O)c(C)c32)c1 [Trametinib] (partner 0.02 µM)
Summary of the method: (§1)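 Five library-drug doses in √10 steps were combined with a fixed anchor-drug dose, or a single drug was given alone, by pin tool to lung cancer cell lines in 1536-well plates the day after seeding. Nuclei were stained and counted after 5 days. Relative viability is the nuclei count in treated wells over that in vehicle wells, taken as the median of duplicate plates.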

AZD8055 + Bortezomib = compound: COc1ccc(-c2ccc3c(N4CCOC[C@@H]4C)nc(N4CCOC[C@@H]4C)nc3n2)cc1CO [AZD8055] + CC(C)C[C@H](NC(=O)[C@H](Cc1ccccc1)NC(=O)c1cnccn1)B(O)O [Bortezomib] (partner 0.002 µM)
Summary of the method: as §1

AZD8055 + Pictilisib = compound: COc1ccc(-c2ccc3c(N4CCOC[C@@H]4C)nc(N4CCOC[C@@H]4C)nc3n2)cc1CO [AZD8055] + CS(=O)(=O)N1CCN(Cc2cc3nc(-c4cccc5[nH]ncc45)nc(N4CCOCC4)c3s2)CC1 [Pictilisib] (partner 1 µM)
Summary of the method: as §1

AZD8055 + Olaparib = compound: COc1ccc(-c2ccc3c(N4CCOC[C@@H]4C)nc(N4CCOC[C@@H]4C)nc3n2)cc1CO [AZD8055] + O=C(c1cc(Cc2n[nH]c(=O)c3ccccc23)ccc1F)N1CCN(C(=O)C2CC2)CC1 [Olaparib] (partner 8 µM)
Summary of the method: as §1

Cell Line	relative viability (AZD8055 + Trametinib; first compound 0.01 µM)	relative viability (AZD8055 + Trametinib; first compound 0.03162 µM)	relative viability (AZD8055 + Trametinib; first compound 0.1 µM)	relative viability (AZD8055 + Trametinib; first compound 0.3162 µM)	relative viability (AZD8055 + Trametinib; first compound 1 µM)	relative viability (AZD8055 + Bortezomib; first compound 0.01 µM)	relative viability (AZD8055 + Bortezomib; first compound 0.03162 µM)	relative viability (AZD8055 + Bortezomib; first compound 0.1 µM)	relative viability (AZD8055 + Bortezomib; first compound 0.3162 µM)	relative viability (AZD8055 + Bortezomib; first compound 1 µM)	relative viability (AZD8055 + Pictilisib; first compound 0.01 µM)	relative viability (AZD8055 + Pictilisib; first compound 0.03162 µM)	relative viability (AZD8055 + Pictilisib; first compound 0.1 µM)	relative viability (AZD8055 + Pictilisib; first compound 0.3162 µM)	relative viability (AZD8055 + Pictilisib; first compound 1 µM)	relative viability (AZD8055 + Olaparib; first compound 0.01 µM)	relative viability (AZD8055 + Olaparib; first compound 0.03162 µM)	relative viability (AZD8055 + Olaparib; first compound 0.1 µM)	relative viability (AZD8055 + Olaparib; first compound 0.3162 µM)	relative viability (AZD8055 + Olaparib; first compound 1 µM)
NCI-H2023	0.454	0.43	0.187	0.152	0.122	0.837	0.664	0.356	0.136	0.137	0.215	0.195	0.137	0.12	0.116	0.434	0.402	0.224	0.148	0.142
NCI-H2085	0.535	0.326	0.282	0.246	0.295	1.11	0.859	0.705	0.407	0.357	0.458	0.394	0.347	0.319	0.346	0.858	0.822	0.553	0.387	0.354
NCI-H2087	0.248	0.166	0.169	0.153	0.116	0.783	0.992	0.796	0.441	0.252	1.06	0.704	0.574	0.446	0.328	0.625	0.519	0.451	0.263	0.217
NCI-H2126	0.544	0.469	0.424	0.294	0.359	1.14	1.08	1.05	0.676	0.638	0.478	0.52	0.385	0.362	0.415	0.916	0.833	0.709	0.493	0.363
NCI-H2228	0.507	0.314	0.211	0.159	0.199	0.877	0.507	0.315	0.198	0.29	0.244	0.273	0.159	0.263	0.287	0.763	0.432	0.217	0.187	0.228
NCI-H2347	0.282	0.299	0.277	0.233	0.233	0.704	0.944	0.598	0.438	0.401	0.65	0.601	0.357	0.322	0.428	0.57	0.491	0.502	0.328	0.395
NCI-H2405	0.555	0.494	0.43	0.282	0.27	1	0.975	0.906	0.46	0.414	0.503	0.398	0.316	0.182	0.223	0.904	0.851	0.772	0.359	0.35
NCI-H3122	0.227	0.195	0.175	0.119	0.0905	1.14	0.998	1.09	0.728	0.657	0.549	0.47	0.337	0.272	0.29	0.775	0.697	0.689	0.338	0.283
PC-3 [JPC-3]	0.749	0.757	0.565	0.462	0.445	0.911	0.872	0.83	0.687	0.555	0.616	0.81	0.645	0.633	0.381	1.19	1.26	1.13	0.798	0.61
PC-14	0.743	0.715	0.179	0.108	0.138	1.13	1.05	0.737	0.272	0.246	0.587	0.452	0.294	0.184	0.113	0.461	0.401	0.321	0.163	0.142
RERF-LC-KJ	0.871	0.816	0.649	0.378	0.38	1.18	0.921	0.748	0.528	0.569	0.566	0.452	0.426	0.309	0.289	0.963	1.08	0.669	0.429	0.404
SK-LU-1	0.579	0.447	0.358	0.284	0.3	1.25	1.06	0.74	0.481	0.422	0.525	0.395	0.327	0.28	0.298	0.442	0.412	0.345	0.305	0.254
SW 1573	0.559	0.518	0.379	0.193	0.15	1.16	0.826	0.711	0.286	0.255	0.504	0.438	0.38	0.205	0.181	0.555	0.417	0.325	0.17	0.16
UMC-11	0.77	0.489	0.453	0.319	0.253	0.824	0.662	0.397	0.215	0.195	0.905	0.604	0.503	0.272	0.254	0.376	0.323	0.335	0.223	0.269
